Laboratory results: the supplement of paper PMC10307832

Tests used:
Assay in all cases: relative viability (nuclei count vs DMSO), 5 days (fraction); higher = more cells survive
Wnt-C59 + OSI-027 = compound: CC1=NC=CC(=C1)C2=CC=C(C=C2)CC(=O)NC3=CC=C(C=C3)C4=CN=CC=C4 [Wnt-C59] + COc1cccc2cc(-c3nc([C@H]4CC[C@H](C(=O)O)CC4)n4ncnc(N)c34)[nH]c12 [OSI-027] (partner 0.5 µM)
Outline: (§1)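 Lung cancer cell lines in 1536-well plates got either a single drug or a fixed anchor-drug dose together with five library-drug doses (not always all listed) in √10 steps, by pin tool, on the day after seeding. Nuclei were counted after 5 days, and relative viability is the treated-to-vehicle ratio of nuclei counts. Values are medians of duplicate plates.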

Wnt-C59 + Pemetrexed = compound: CC1=NC=CC(=C1)C2=CC=C(C=C2)CC(=O)NC3=CC=C(C=C3)C4=CN=CC=C4 [Wnt-C59] + Nc1nc2[nH]cc(CCc3ccc(C(=O)N[C@@H](CCC(=O)O)C(=O)O)cc3)c2c(=O)[nH]1 [Pemetrexed] (partner 0.2 µM)
Outline: as §1

Wnt-C59 + Olaparib = compound: CC1=NC=CC(=C1)C2=CC=C(C=C2)CC(=O)NC3=CC=C(C=C3)C4=CN=CC=C4 [Wnt-C59] + O=C(c1cc(Cc2n[nH]c(=O)c3ccccc23)ccc1F)N1CCN(C(=O)C2CC2)CC1 [Olaparib] (partner 8 µM)
Outline: as §1

Wnt-C59 + Alpelisib = compound: CC1=NC=CC(=C1)C2=CC=C(C=C2)CC(=O)NC3=CC=C(C=C3)C4=CN=CC=C4 [Wnt-C59] + Cc1nc(NC(=O)N2CCC[C@H]2C(N)=O)sc1-c1ccnc(C(C)(C)C(F)(F)F)c1 [Alpelisib] (partner 2 µM)
Outline: as §1

Cell Line	relative viability (Wnt-C59 + OSI-027; first compound 0.001 µM)	relative viability (Wnt-C59 + OSI-027; first compound 0.01 µM)	relative viability (Wnt-C59 + OSI-027; first compound 0.03162 µM)	relative viability (Wnt-C59 + OSI-027; first compound 0.1 µM)	relative viability (Wnt-C59 + Pemetrexed; first compound 0.001 µM)	relative viability (Wnt-C59 + Pemetrexed; first compound 0.01 µM)	relative viability (Wnt-C59 + Pemetrexed; first compound 0.03162 µM)	relative viability (Wnt-C59 + Pemetrexed; first compound 0.1 µM)	relative viability (Wnt-C59 + Olaparib; first compound 0.001 µM)	relative viability (Wnt-C59 + Olaparib; first compound 0.01 µM)	relative viability (Wnt-C59 + Olaparib; first compound 0.03162 µM)	relative viability (Wnt-C59 + Olaparib; first compound 0.1 µM)	relative viability (Wnt-C59 + Alpelisib; first compound 0.001 µM)	relative viability (Wnt-C59 + Alpelisib; first compound 0.01 µM)	relative viability (Wnt-C59 + Alpelisib; first compound 0.03162 µM)	relative viability (Wnt-C59 + Alpelisib; first compound 0.1 µM)
NCI-H522	0.683	0.654	0.742	0.784	1.18	1.03	1.17	0.855	0.694	0.74	0.565	0.581	–	–	–	–
NCI-H650	0.581	0.661	0.485	0.532	1.09	0.969	0.934	0.951	0.415	0.354	0.418	0.454	1.01	1.24	1.23	1.11
NCI-H460	0.663	0.739	0.88	0.624	0.0664	0.0664	0.0652	0.0706	0.462	0.483	0.474	0.459	0.45	0.46	0.472	0.413
HCC-827	0.877	0.724	0.9	0.761	0.282	0.262	0.282	0.255	0.668	0.594	0.689	0.587	0.993	0.979	0.971	0.966
NCI-H647	0.644	0.763	0.779	0.676	0.162	0.158	0.201	0.178	0.579	0.539	0.762	0.513	1.15	1.11	1.23	1
SW 1573	0.684	0.659	0.63	0.639	0.863	0.848	0.879	0.761	0.449	0.445	0.551	0.39	0.701	0.758	0.89	0.79
NCI-H2170	0.748	0.468	0.872	0.491	0.271	0.275	0.253	0.274	0.631	0.568	0.649	0.499	0.813	0.675	0.987	0.841
NCI-H358	0.838	0.769	0.908	0.767	0.167	0.176	0.207	0.172	0.623	0.609	0.576	0.801	0.917	0.825	0.901	0.905
COR-L 105	0.916	0.696	0.635	0.632	1.13	0.887	1.14	1.15	0.708	0.727	0.684	0.656	1.19	1.03	0.93	0.78
PC-3 [JPC-3]	0.83	0.738	0.83	0.773	1.11	1.24	1.04	1.47	1.18	1.21	1.22	1.16	1.02	1.05	1.04	1.07
NCI-H1993	0.582	–	0.57	0.544	0.67	0.591	0.609	0.625	1.17	1.06	1.11	0.413	0.763	0.642	0.682	0.708
NCI-H1734	0.622	0.518	0.596	0.3	0.414	0.389	0.423	0.394	0.615	0.612	0.672	0.282	0.807	0.68	0.703	0.726
ChaGo-K-1	0.512	0.569	0.525	0.563	0.258	0.259	0.252	0.266	0.419	0.417	0.462	0.435	–	–	–	–
LU99A	0.307	0.281	0.342	0.274	0.205	0.195	0.178	0.195	0.28	0.264	0.29	0.23	0.496	0.566	0.604	0.538
ABC-1	0.441	0.597	0.435	0.389	–	–	–	–	1	0.898	0.502	0.846	1.26	1.01	0.718	0.876
HCC-44	0.768	0.671	0.538	0.608	0.619	0.647	0.64	0.629	0.981	1.02	0.965	0.92	0.792	0.817	0.865	0.892
NCI-H1650	0.756	0.569	0.645	0.647	0.354	0.442	0.38	0.422	0.78	0.817	0.802	0.684	–	–	–	–
NCI-H596	0.733	0.499	0.952	0.719	0.533	0.569	0.483	0.479	0.7	0.664	0.742	0.745	0.528	0.396	0.615	0.475
NCI-H1915	0.667	0.578	0.529	0.692	0.502	0.464	0.517	0.505	0.256	0.266	0.248	0.239	1.07	1.01	1.07	1.03
NCI-H1395	0.61	0.661	0.717	0.727	0.968	0.861	0.94	0.885	0.497	0.444	0.411	0.424	0.993	1.13	1.08	1.07

Cell Line	relative viability (Wnt-C59 + OSI-027; first compound 0.001 µM)	relative viability (Wnt-C59 + OSI-027; first compound 0.01 µM)	relative viability (Wnt-C59 + OSI-027; first compound 0.03162 µM)	relative viability (Wnt-C59 + OSI-027; first compound 0.1 µM)	relative viability (Wnt-C59 + Pemetrexed; first compound 0.001 µM)	relative viability (Wnt-C59 + Pemetrexed; first compound 0.01 µM)	relative viability (Wnt-C59 + Pemetrexed; first compound 0.03162 µM)	relative viability (Wnt-C59 + Pemetrexed; first compound 0.1 µM)	relative viability (Wnt-C59 + Olaparib; first compound 0.001 µM)	relative viability (Wnt-C59 + Olaparib; first compound 0.01 µM)	relative viability (Wnt-C59 + Olaparib; first compound 0.03162 µM)	relative viability (Wnt-C59 + Olaparib; first compound 0.1 µM)	relative viability (Wnt-C59 + Alpelisib; first compound 0.001 µM)	relative viability (Wnt-C59 + Alpelisib; first compound 0.01 µM)	relative viability (Wnt-C59 + Alpelisib; first compound 0.03162 µM)	relative viability (Wnt-C59 + Alpelisib; first compound 0.1 µM)
CAL-12T	0.871	0.611	0.856	0.654	1.33	1.18	1.29	1.09	0.727	0.689	0.674	0.783	1.25	1.32	1.31	1.1
SW 900	0.585	0.54	0.457	0.554	0.505	0.469	0.483	0.478	0.887	0.814	0.987	0.987	–	–	–	–
NCI-H2342	0.57	0.527	0.646	0.613	0.758	0.773	0.892	0.777	0.792	0.489	0.446	0.396	–	–	–	–
NCI-H1299	–	–	–	–	–	–	–	–	0.918	0.953	0.932	0.937	1.05	1.08	1.05	1.04
HARA	0.478	0.337	0.64	0.518	0.206	0.206	0.26	0.237	0.826	0.784	0.866	0.856	0.773	0.645	0.959	0.787
H3255	0.683	0.58	0.685	0.545	0.598	0.553	0.583	0.554	0.641	0.458	0.56	0.526	0.798	0.556	0.68	0.596
NCI-H1792	0.722	0.686	0.926	0.703	0.723	0.714	0.777	1.18	0.487	0.48	0.525	0.385	0.707	0.693	0.806	0.785
NCI-H2023	0.475	0.316	0.461	0.376	0.238	0.258	0.221	0.24	0.498	0.517	0.555	0.411	0.627	0.622	0.656	0.508
HCC-78	0.389	0.364	0.366	0.411	0.913	0.883	0.907	0.934	0.883	0.852	0.855	0.633	0.298	0.336	0.333	0.363
NCI-H1623	0.429	0.383	0.416	0.453	–	–	–	–	–	–	–	–	–	–	–	–
HOP-62	0.743	0.813	0.788	0.852	0.34	0.294	0.353	0.29	0.523	0.266	0.363	0.343	1.13	0.919	1.1	0.644
Calu-6	–	–	–	–	–	–	–	–	0.572	0.576	0.698	0.614	0.898	0.945	1.15	0.938
A549	–	–	–	–	–	–	–	–	0.302	0.321	0.357	0.332	0.978	0.75	0.712	0.682
NCI-H1703	–	–	–	–	–	–	–	–	0.507	0.368	0.611	0.322	0.33	0.328	0.352	0.283
NCI-H727	0.759	0.581	0.641	0.541	–	–	–	–	0.691	0.697	0.823	0.677	0.584	0.546	0.741	0.421
NCI-H1563	0.711	0.784	0.761	0.728	0.736	0.751	0.723	0.705	–	–	–	–	0.925	0.852	1.07	0.888
IA-LM	–	–	–	–	–	–	–	–	0.848	0.873	0.969	0.712	0.84	0.862	0.759	0.804
EBC-1	–	–	–	–	–	–	–	–	0.742	0.75	0.681	0.635	0.91	0.852	0.755	0.79
NCI-H1648	0.292	0.285	0.292	0.246	0.615	0.922	0.81	0.66	1.13	0.76	1.3	0.679	–	–	–	–
